Reference: article PMC12310023 (PLOS Neglected Tropical Diseases, 2025)

Test system: NLuc-expressing C. parvum
Assay: NLuc C. parvum IFNγ-KO mouse infection model, oocyst shedding
Format: in vivo

Compound: CC(C)(CO)Cn1nc(-c2ccc3cc(OC4CC4)ccc3c2)c(C(N)=O)c1N [compound 1708]
- RLU Raw (8 mg/kg QD x3, group I, Day 6, Cp Mouse Efficacy 1): 754480 RLU
- RLU Raw (8 mg/kg QD x3, group I, Day 7, Cp Mouse Efficacy 1): 2842576 RLU
- RLU Raw (8 mg/kg QD x3, group I, Day 8, Cp Mouse Efficacy 1): 17367584 RLU
- RLU Raw (8 mg/kg QD x3, group I, Day 9, Cp Mouse Efficacy 1): 4938000 RLU
- RLU Raw (8 mg/kg QD x3, group I, Day 10, Cp Mouse Efficacy 1): 9525504 RLU
- RLU Raw (8 mg/kg QD x3, group I, Day 13, Cp Mouse Efficacy 1): 2717520 RLU
- RLU Raw (8 mg/kg QD x3, group I, Day 15, Cp Mouse Efficacy 1): 2626944 RLU
- RLU Raw (8 mg/kg QD x3, group I, Day 17, Cp Mouse Efficacy 1): 5999920 RLU
- RLU Raw (8 mg/kg QD x3, group I, Day 20, Cp Mouse Efficacy 1): 14563168 RLU
- RLU standardized by fecal weight (8 mg/kg QD x3, group I, day 6 p.i., Cp Mouse Efficacy 1): 118816 RLU
- RLU standardized by fecal weight (8 mg/kg QD x3, group I, day 7 p.i., Cp Mouse Efficacy 1): 653466 RLU
- RLU standardized by fecal weight (8 mg/kg QD x3, group I, day 8 p.i., Cp Mouse Efficacy 1): 4135139 RLU
- RLU standardized by fecal weight (8 mg/kg QD x3, group I, day 9 p.i., Cp Mouse Efficacy 1): 1371667 RLU
- RLU standardized by fecal weight (8 mg/kg QD x3, group I, day 10 p.i., Cp Mouse Efficacy 1): 1763982 RLU
- RLU standardized by fecal weight (8 mg/kg QD x3, group I, day 13 p.i., Cp Mouse Efficacy 1): 414889 RLU
- RLU standardized by fecal weight (8 mg/kg QD x3, group I, day 15 p.i., Cp Mouse Efficacy 1): 314604 RLU
- RLU standardized by fecal weight (8 mg/kg QD x3, group I, day 17 p.i., Cp Mouse Efficacy 1): 909079 RLU
- RLU standardized by fecal weight (8 mg/kg QD x3, group I, day 20 p.i., Cp Mouse Efficacy 1): 1879118 RLU
- RLU Raw (15 mg/kg QD x3, group H, Day 6, Cp Mouse Efficacy 1): 464960 RLU
- RLU Raw (15 mg/kg QD x3, group H, Day 7, Cp Mouse Efficacy 1): 131248 RLU
- RLU Raw (15 mg/kg QD x3, group H, Day 8, Cp Mouse Efficacy 1): 447488 RLU
- RLU Raw (15 mg/kg QD x3, group H, Day 9, Cp Mouse Efficacy 1): 45888 RLU
- RLU Raw (15 mg/kg QD x3, group H, Day 10, Cp Mouse Efficacy 1): 5216 RLU
- RLU Raw (15 mg/kg QD x3, group H, Day 13, Cp Mouse Efficacy 1): 1120 RLU
- RLU Raw (15 mg/kg QD x3, group H, Day 15, Cp Mouse Efficacy 1): 6784 RLU
- RLU Raw (15 mg/kg QD x3, group H, Day 17, Cp Mouse Efficacy 1): 944 RLU
- RLU Raw (15 mg/kg QD x3, group H, Day 20, Cp Mouse Efficacy 1): 848 RLU
- RLU standardized by fecal weight (15 mg/kg QD x3, group H, day 6 p.i., Cp Mouse Efficacy 1): 86104 RLU
- RLU standardized by fecal weight (15 mg/kg QD x3, group H, day 7 p.i., Cp Mouse Efficacy 1): 18617 RLU
- RLU standardized by fecal weight (15 mg/kg QD x3, group H, day 8 p.i., Cp Mouse Efficacy 1): 49446 RLU
- RLU standardized by fecal weight (15 mg/kg QD x3, group H, day 9 p.i., Cp Mouse Efficacy 1): 4543 RLU
- RLU standardized by fecal weight (15 mg/kg QD x3, group H, day 10 p.i., Cp Mouse Efficacy 1): 1391 RLU
- RLU standardized by fecal weight (15 mg/kg QD x3, group H, day 13 p.i., Cp Mouse Efficacy 1): 89 RLU
- RLU standardized by fecal weight (15 mg/kg QD x3, group H, day 15 p.i., Cp Mouse Efficacy 1): 665 RLU
- RLU standardized by fecal weight (15 mg/kg QD x3, group H, day 17 p.i., Cp Mouse Efficacy 1): 115 RLU
- RLU standardized by fecal weight (15 mg/kg QD x3, group H, day 20 p.i., Cp Mouse Efficacy 1): 86 RLU
- RLU Raw (15 mg/kg x 1 days, group G, Day 6, Cp Mouse Efficacy 2): 267600 RLU
- RLU Raw (15 mg/kg x 1 days, group G, Day 7, Cp Mouse Efficacy 2): 185696 RLU
- RLU Raw (15 mg/kg x 1 days, group G, Day 8, Cp Mouse Efficacy 2): 380816 RLU
- RLU Raw (15 mg/kg x 1 days, group G, Day 9, Cp Mouse Efficacy 2): 630928 RLU
- RLU Raw (15 mg/kg x 1 days, group G, Day 10, Cp Mouse Efficacy 2): 2410000 RLU
- RLU Raw (15 mg/kg x 1 days, group G, Day 13, Cp Mouse Efficacy 2): 338704 RLU
- RLU Raw (15 mg/kg x 1 days, group G, Day 15, Cp Mouse Efficacy 2): 51520 RLU
- RLU Raw (15 mg/kg x 1 days, group G, Day 17, Cp Mouse Efficacy 2): 66336 RLU
- RLU Raw (15 mg/kg x 1 days, group G, Day 20, Cp Mouse Efficacy 2): 43392 RLU
- RLU standardized by fecal weight (15 mg/kg x 1 days, group G, day 6 p.i., Cp Mouse Efficacy 2): 18713 RLU
- RLU standardized by fecal weight (15 mg/kg x 1 days, group G, day 7 p.i., Cp Mouse Efficacy 2): 21344 RLU
- RLU standardized by fecal weight (15 mg/kg x 1 days, group G, day 8 p.i., Cp Mouse Efficacy 2): 110381 RLU
- RLU standardized by fecal weight (15 mg/kg x 1 days, group G, day 9 p.i., Cp Mouse Efficacy 2): 122510 RLU
- RLU standardized by fecal weight (15 mg/kg x 1 days, group G, day 10 p.i., Cp Mouse Efficacy 2): 529670 RLU
- RLU standardized by fecal weight (15 mg/kg x 1 days, group G, day 13 p.i., Cp Mouse Efficacy 2): 94084 RLU
- RLU standardized by fecal weight (15 mg/kg x 1 days, group G, day 15 p.i., Cp Mouse Efficacy 2): 6869 RLU
- RLU standardized by fecal weight (15 mg/kg x 1 days, group G, day 17 p.i., Cp Mouse Efficacy 2): 20102 RLU
- RLU standardized by fecal weight (15 mg/kg x 1 days, group G, day 20 p.i., Cp Mouse Efficacy 2): 10091 RLU
- RLU Raw (15 mg/kg x 2 days, group H, Day 6, Cp Mouse Efficacy 2): 505536 RLU
- RLU Raw (15 mg/kg x 2 days, group H, Day 7, Cp Mouse Efficacy 2): 606112 RLU
- RLU Raw (15 mg/kg x 2 days, group H, Day 8, Cp Mouse Efficacy 2): 78272 RLU
- RLU Raw (15 mg/kg x 2 days, group H, Day 9, Cp Mouse Efficacy 2): 75472 RLU
- RLU Raw (15 mg/kg x 2 days, group H, Day 10, Cp Mouse Efficacy 2): 77152 RLU
- RLU Raw (15 mg/kg x 2 days, group H, Day 13, Cp Mouse Efficacy 2): 20208 RLU
- RLU Raw (15 mg/kg x 2 days, group H, Day 15, Cp Mouse Efficacy 2): 12176 RLU
- RLU Raw (15 mg/kg x 2 days, group H, Day 17, Cp Mouse Efficacy 2): 9280 RLU
- RLU Raw (15 mg/kg x 2 days, group H, Day 20, Cp Mouse Efficacy 2): 10848 RLU
- RLU standardized by fecal weight (15 mg/kg x 2 days, group H, day 6 p.i., Cp Mouse Efficacy 2): 118950 RLU
- RLU standardized by fecal weight (15 mg/kg x 2 days, group H, day 7 p.i., Cp Mouse Efficacy 2): 269383 RLU
- RLU standardized by fecal weight (15 mg/kg x 2 days, group H, day 8 p.i., Cp Mouse Efficacy 2): 14630 RLU
- RLU standardized by fecal weight (15 mg/kg x 2 days, group H, day 9 p.i., Cp Mouse Efficacy 2): 18635 RLU
- RLU standardized by fecal weight (15 mg/kg x 2 days, group H, day 10 p.i., Cp Mouse Efficacy 2): 18370 RLU
- RLU standardized by fecal weight (15 mg/kg x 2 days, group H, day 13 p.i., Cp Mouse Efficacy 2): 1962 RLU
- RLU standardized by fecal weight (15 mg/kg x 2 days, group H, day 15 p.i., Cp Mouse Efficacy 2): 2387 RLU
- RLU standardized by fecal weight (15 mg/kg x 2 days, group H, day 17 p.i., Cp Mouse Efficacy 2): 1160 RLU
- RLU standardized by fecal weight (15 mg/kg x 2 days, group H, day 20 p.i., Cp Mouse Efficacy 2): 4094 RLU
- RLU Raw (15 mg/kg x 3 days, group I, Day 6, Cp Mouse Efficacy 2): 932240 RLU
- RLU Raw (15 mg/kg x 3 days, group I, Day 7, Cp Mouse Efficacy 2): 627218 RLU
- RLU Raw (15 mg/kg x 3 days, group I, Day 8, Cp Mouse Efficacy 2): 396768 RLU
- RLU Raw (15 mg/kg x 3 days, group I, Day 9, Cp Mouse Efficacy 2): 37984 RLU
- RLU Raw (15 mg/kg x 3 days, group I, Day 10, Cp Mouse Efficacy 2): 6160 RLU
- RLU Raw (15 mg/kg x 3 days, group I, Day 13, Cp Mouse Efficacy 2): 1280 RLU
- RLU Raw (15 mg/kg x 3 days, group I, Day 15, Cp Mouse Efficacy 2): 656 RLU
- RLU Raw (15 mg/kg x 3 days, group I, Day 17, Cp Mouse Efficacy 2): 496 RLU
- RLU Raw (15 mg/kg x 3 days, group I, Day 20, Cp Mouse Efficacy 2): 864 RLU
